{"source": "ChEMBL document CHEMBL4196012", "about": "(Eur J Med Chem, 2018)", "key": {"Escherichia coli [1]": {"system": "Escherichia coli", "test": "In vivo antibacterial activity against Escherichia coli NCTC 10419 infected in po dosed mouse administered at 1 and 4 hrs post infection", "type": "functional, organism-based"}, "Staphylococcus aureus [2]": {"system": "Staphylococcus aureus", "test": "Potency index, ratio of ciprofloxacin MIC to compound MIC for antibacterial activity against vancomycin-insensitive Staphylococcus aureus", "type": "functional"}, "Staphylococcus aureus [3]": {"system": "Staphylococcus aureus", "test": "Antibacterial activity against Staphylococcus aureus ATCC 29213 after 16 to 20 hrs by NCCLS microdilution method", "type": "functional"}, "Staphylococcus aureus [4]": {"system": "Staphylococcus aureus", "test": "Antibacterial activity against quinolone-resistant Staphylococcus aureus after 16 to 20 hrs by NCCLS microdilution method", "type": "functional"}, "Staphylococcus aureus [5]": {"system": "Staphylococcus aureus", "test": "Antibacterial activity against linezolid-resistant Staphylococcus aureus after 16 to 20 hrs by NCCLS microdilution method", "type": "functional"}, "Enterococcus faecalis [6]": {"system": "Enterococcus faecalis", "test": "Antibacterial activity against Enterococcus faecalis ATCC 29212 after 16 to 20 hrs by NCCLS microdilution method", "type": "functional"}, "Enterococcus faecalis [7]": {"system": "Enterococcus faecalis", "test": "Antibacterial activity against linezolid-resistant Enterococcus faecalis after 16 to 20 hrs by NCCLS microdilution method", "type": "functional"}, "Enterococcus faecium": {"system": "Enterococcus faecium", "test": "Antibacterial activity against vancomycin and quinolone-resistant Enterococcus faecium after 16 to 20 hrs by NCCLS microdilution method", "type": "functional"}, "Streptococcus pneumoniae [8]": {"system": "Streptococcus pneumoniae", "test": "Antibacterial activity against Streptococcus pneumoniae ATCC 49619 after 16 to 20 hrs by NCCLS microdilution method", "type": "functional"}, "Streptococcus pneumoniae [9]": {"system": "Streptococcus pneumoniae", "test": "Antibacterial activity against quinolone-resistant Streptococcus pneumoniae after 16 to 20 hrs by NCCLS microdilution method", "type": "functional"}, "Haemophilus influenzae": {"system": "Haemophilus influenzae", "test": "Antibacterial activity against Haemophilus influenzae 11 after 16 to 20 hrs by NCCLS microdilution method", "type": "functional"}, "Moraxella catarrhalis": {"system": "Moraxella catarrhalis", "test": "Antibacterial activity against Moraxella catarrhalis ATCC 8176 after 16 to 20 hrs by NCCLS microdilution method", "type": "functional"}, "Escherichia coli [10]": {"system": "Escherichia coli", "test": "Antibacterial activity against Escherichia coli ATCC 25922 after 16 to 20 hrs by NCCLS microdilution method", "type": "functional"}, "Escherichia coli [11]": {"system": "Escherichia coli", "test": "Antibacterial activity against Escherichia coli after 24 hrs by agar streak dilution method", "type": "functional"}, "Pseudomonas aeruginosa [12]": {"system": "Pseudomonas aeruginosa", "test": "Potency index, ratio of ciprofloxacin MIC to compound MIC for antibacterial activity against Pseudomonas aeruginosa", "type": "functional"}, "Escherichia coli [13]": {"system": "Escherichia coli", "test": "Potency index, ratio of ciprofloxacin MIC to compound MIC for antibacterial activity against Escherichia coli", "type": "functional"}, "Pseudomonas aeruginosa [14]": {"system": "Pseudomonas aeruginosa", "test": "Antibacterial activity against Pseudomonas aeruginosa after 24 hrs by agar streak dilution method", "type": "functional"}, "Escherichia coli [15]": {"system": "Escherichia coli", "test": "Antibacterial activity against Escherichia coli ATCC 8739 by agar dilution method", "type": "functional"}, "Klebsiella pneumoniae": {"system": "Klebsiella pneumoniae", "test": "Antibacterial activity against Klebsiella pneumoniae ATCC 10031 by agar dilution method", "type": "functional"}, "Pseudomonas aeruginosa [16]": {"system": "Pseudomonas aeruginosa", "test": "Antibacterial activity against Pseudomonas aeruginosa ATCC 9027 by agar dilution method", "type": "functional"}, "Bacillus subtilis": {"system": "Bacillus subtilis", "test": "Antibacterial activity against Bacillus subtilis PTCC 1023 by agar dilution method", "type": "functional"}, "Staphylococcus aureus [17]": {"system": "Staphylococcus aureus", "test": "Antibacterial activity against Staphylococcus aureus ATCC 6538P by agar dilution method", "type": "functional"}, "[18]": {"system": "Staphylococcus epidermidis", "test": "Antibacterial activity against Staphylococcus epidermidis ATCC 12228 by agar dilution method", "type": "functional"}}, "data": [{"smiles": "COc1cc(Cc2cnc(/N=C3\\C(=O)N(CN4CCN(c5cc6c(cc5F)c(=O)c(C(=O)O)cn6C5CC5)CC4)c4ccc(C)cc43)nc2N)cc(OC)c1OC", "values": [{"measurement": "EC50", "setting": "Escherichia coli [1]", "result": 0.62, "unit": "mg/kg"}]}, {"smiles": "CCn1cc(C(=O)O)c(=O)c2cnc(N3CCN(Cc4ccc(CN5CCN(c6cc7c(cc6F)c(=O)c(C(=O)O)cn7C6CC6)CC5)cc4)CC3)nc21", "values": [{"measurement": "Ratio", "setting": "Staphylococcus aureus [2]", "result": ">4"}]}, {"smiles": "CC(=O)NC[C@H]1CN(c2ccc(N3CCN(c4cc5c(cc4F)c(=O)c(C(=O)O)cn5C4CC4)CC3)c(F)c2)C(=O)O1", "values": [{"measurement": "MIC", "setting": "Staphylococcus aureus [3]", "result": "0.125 to 4", "unit": "µg/mL"}, {"measurement": "MIC", "setting": "Staphylococcus aureus [4]", "result": "0.25 to 0.5", "unit": "µg/mL"}, {"measurement": "MIC", "setting": "Staphylococcus aureus [5]", "result": "0.125 to 4", "unit": "µg/mL"}, {"measurement": "MIC", "setting": "Enterococcus faecalis [6]", "result": "0.125 to 4", "unit": "µg/mL"}, {"measurement": "MIC", "setting": "Enterococcus faecalis [7]", "result": "0.125 to 4", "unit": "µg/mL"}, {"measurement": "MIC", "setting": "Enterococcus faecium", "result": "0.25 to 0.5", "unit": "µg/mL"}, {"measurement": "MIC", "setting": "Streptococcus pneumoniae [8]", "result": "0.125 to 4", "unit": "µg/mL"}, {"measurement": "MIC", "setting": "Streptococcus pneumoniae [9]", "result": "0.25 to 0.5", "unit": "µg/mL"}, {"measurement": "MIC", "setting": "Haemophilus influenzae", "result": "0.125 to 4", "unit": "µg/mL"}, {"measurement": "MIC", "setting": "Moraxella catarrhalis", "result": "0.125 to 4", "unit": "µg/mL"}, {"measurement": "MIC", "setting": "Escherichia coli [10]", "result": "0.125 to 4", "unit": "µg/mL"}]}, {"smiles": "CCOc1ccc2nc(C3C(=O)CSC3N3CCN(c4cc5c(cc4F)c(=O)c(C(=O)O)cn5C4CC4)CC3)sc2c1", "note": "(stereo not drawn)", "values": [{"measurement": "MIC", "setting": "Escherichia coli [11]", "result": 2, "unit": "µg/mL"}, {"measurement": "Ratio", "setting": "Pseudomonas aeruginosa [12]", "result": 3}, {"measurement": "Ratio", "setting": "Escherichia coli [13]", "result": 3}, {"measurement": "MIC", "setting": "Pseudomonas aeruginosa [14]", "result": 2, "unit": "µg/mL"}]}, {"smiles": "O=C(O)c1cn(C2CC2)c2cc(N3CCN(c4nnc(-c5ccc([N+](=O)[O-])s5)s4)CC3)c(F)cc2c1=O", "values": [{"measurement": "MIC", "setting": "Escherichia coli [15]", "result": "2 to 64", "unit": "µg/mL"}, {"measurement": "MIC", "setting": "Klebsiella pneumoniae", "result": "2 to 64", "unit": "µg/mL"}, {"measurement": "MIC", "setting": "Pseudomonas aeruginosa [16]", "result": "2 to 64", "unit": "µg/mL"}, {"measurement": "MIC", "setting": "Bacillus subtilis", "result": "0.008 to 0.015", "unit": "µg/mL"}, {"measurement": "MIC", "setting": "Staphylococcus aureus [17]", "result": "0.008 to 0.015", "unit": "µg/mL"}, {"measurement": "MIC", "setting": "[18]", "result": "0.008 to 0.015", "unit": "µg/mL"}]}]}
